Test results published in patent publication EP1114060B1, “PROCESS FOR PRODUCING PEPTIDES FROM BIOLOGICAL FLUIDS AND PEPTIDES […] SAID PROCESS” (NIZO food research, priority 1998, dated 2003).
Bridges are numbered along the chain shown (N, C = ends). Where no end group is shown, it is not given here. [ ]: non-standard residue; d: D form. Dhb = C/C=C(\N)C(=O)O; Dha = C=C(N)C(=O)O

Test system: Micrococcus flavus DSM 1790
Test: plate diffusion assay for antibacterial activity
Type: cell-based
Settings: fraction desorbed with 1 M KCI in phosphate buffer, pH 7.0
Protocol: Antibacterial activities of the peptide mixtures and/or isolated peptides were determined by a plate diffusion assay using Micrococcus flavus DSM 1790 as indicator organism. M. flavus was grown in MF broth (0.1% sucrose, 1% peptone, 0.3% meat extract, 0.2% NaCI, 0.15% yeast extract pH 7.0). Peptide mixtures were tested at concentrations from 0.2 mg/ml to 50 mg/ml in bidistilled water.

nisin A (I[Dhb]SI[Dha]LCTPGCKTGALMGCNMKTATCHCSIHV[Dha]K; bridge 23-26, 13-19, 8-11, 25-28, 3-7; not fully specified (bridges); UniProt P13068 24-57, looked up) [lantibiotic]
activity against Micrococcus flavus: showed activity
